The text below walks through data of the METLIN SMRT retention time set (Domingo-Almenara et al. 2019).

Molecules are shown by their SMILES.

A short description of the series: gradient 5% acetonitrile 3 min, to 50% in 2 min, to 85% in 15 min, held 3 min, 100 µL/min. The settings on record: column: Zorbax Extend-C18 2.1 x 50 mm; eluents: water / acetonitrile, 0.1% formic acid. The method, boiled down:
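Over 3 months, pure standards in mixtures of ~100 molecules were run by HPLC coupled to a quadrupole time-of-flight mass spectrometer in positive and negative ionization mode. The column was a Zorbax Extend-C18 (2.1 × 50 mm, 1.8 μm) at 100 μL/min, eluted with water and acetonitrile each holding 0.1% formic acid, with 40 μL dead and 900 μL dwell volumes. Retention time was determined from adduct peaks chosen by software and checked manually.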
Regarding `COc1ccc(NS(=O)(=O)c2c(C)sc(C)c2-c2cc(C(F)(F)F)on2)c(OC)c1`, the RP-LC retention time was determined as 1140 s.

The molecule `CCOC(=O)C1C(=O)NC(SC)=C(C#N)C1c1ccccc1[N+](=O)[O-]` (centres undefined) registered an RP-LC retention time of 778 s. Next, `COc1ccc(-c2ncc3c(n2)CCN(S(=O)(=O)c2cccs2)C3)cc1`: 997 s. Consider `CNC(=O)[C@@H]1C[C@H](Oc2ccccc2)CN1C(=O)COc1ccccc1`, for which the RP-LC retention time stood at 603 s. Molecule `Fc1ccc(F)c(-c2nc(-c3ccc4nncn4c3)no2)c1` showed an RP-LC retention time of 801 s.

Molecule `CC1(C(=O)NCc2ccccc2)CCCN(C(=O)NCc2ccc(F)cc2)C1` (centres undefined) came in with an RP-LC retention time of 831 s. Next, `CN1CCN(CCCNC(=O)c2ccc3c(c2)N(C)C(=O)C2CCCCN32)CC1` (centres undefined): 575 s. On to `CCCn1ccc2sc(C)c(C(=O)NCc3ccc(OC)c(OC)c3)c2c1=O`, for which the RP-LC retention time was 780 s. Next, `Cc1ccccc1NS(=O)(=O)c1cc2c3c(c1)CCC(=O)N3CCC2`: 967 s; `COc1ccc(NC(=O)C(C)n2cnc3nc4c(cc3c2=O)CCCC4)cc1OC` (centres undefined): 685 s. The value for `CN(C)S(=O)(=O)c1ccc(-n2cnc(C(=O)N3CCN(Cc4ccccc4)CC3)c2)cc1` was 626 s; that for `CCCS(=O)(=O)N1CC(=O)N(c2ccc(F)cc2)C(C)(C(=O)NC2CCCCCC2)C1` (centres undefined) was 938 s. As to `O=C(C1CCCO1)N1CC2CN(S(=O)(=O)c3cccc(F)c3)CC(C1)O2` (centres undefined), the RP-LC retention time turned out to be 676 s. For the molecule `Cc1ccc(Cl)cc1NC(=O)C1CCCN1S(=O)(=O)c1cc2c(cc1C)NC(=O)C(C)O2` (centres undefined), the RP-LC retention time was 892 s. The value for `CC1=C(c2ccc(F)cc2)S(=O)(=O)N=C1N1CCCN(C(=O)c2cccnc2)CC1` was 713 s; that for `O=C(NCCC1=CCCCC1)C1CCCCN1S(=O)(=O)c1ccc(Cl)cc1` (centres undefined) was 1200 s; that for `O=C(NCc1cccnc1)C1CCCN(C(=O)c2cc3ccsc3n2Cc2cccc(Cl)c2)C1` (centres undefined) was 711 s. `Cc1cc(N2CCN(C(=O)c3ccco3)CC2)nc(N2CCCCC2)n1` yielded an RP-LC retention time of 626 s.

The molecule `Cc1nc(C#Cc2ccnc(Cl)c2)c(C)n1-c1ccc(OC(F)(F)F)cc1` showed an RP-LC retention time of 898 s.

For `CC(C)n1c(N2CCN(C(=O)c3cccnc3)CC2)cc(=O)n(C(C)C)c1=O`, the RP-LC retention time was 602 s.

The molecule `Cc1nc(-c2cc(S(=O)(=O)Nc3ccccc3Cl)c(C)s2)sc1C` registered an RP-LC retention time of 1120 s.

Turning to `CCc1ccc(OCc2nc(CCN(C)C(=O)Nc3ccc(OC)cc3)no2)cc1`, the RP-LC retention time came to 949 s. The value for `O=C1COc2ccc(S(=O)(=O)N3CCC(C(=O)Nc4ccc(OC(F)(F)F)cc4)CC3)cc2N1` was 909 s; that for `Cc1cc(N2CCN(C)CC2)n2nc(CN3CCN(c4cccc(C)c4C)CC3)nc2n1` was 570 s; that for `Cn1cc(CC(=O)N2CCN(S(=O)(=O)C3CC3)CC2)c2ccccc21` was 577 s.

For `Cn1nc(C(=O)N2CCCCC2)c2c1CCN(C(=O)CCC(=O)NCCN1CCCCC1)C2`, the RP-LC retention time stood at 586 s. Turning to `O=C(Nc1nccs1)C1CCN(c2nc(-c3ccc(Cl)cc3)no2)CC1`, the RP-LC retention time is 976 s.

`Cc1cc(C)c(S(=O)(=O)N(CC(=O)N2CCNCC2)CC2CCCO2)cc1C` (centres undefined) showed an RP-LC retention time of 704 s. The value for `COc1ccc(CC(=O)N2CCN(S(=O)(=O)c3cc4c5c(c3)CCC(=O)N5CCC4)CC2)cc1` was 786 s; that for `COc1cccc(-c2noc(Cn3c(=O)n(-c4cccc(F)c4)c(=O)c4sccc43)n2)c1` was 957 s. `c1ccc2c(c1)nnn1c3cnccc3nc21` gave an RP-LC retention time of 606 s.

Molecule `COc1cccc(NC(=O)Nc2ccc3c(c2)CCN3S(=O)(=O)c2ccccc2)c1` displayed an RP-LC retention time of 933 s. The value for `O=C(Cn1ccn2nc(-c3ccc(Cl)cc3)cc2c1=O)N1CCCc2ccccc21` was 1080 s; that for `CCCn1cc(S(=O)(=O)Nc2cccc(C)c2C)c2cccnc21` was 943 s. The value for `O=C(CSc1ccc(N2CCCC(C(=O)NC3CC3)C2)nn1)Nc1ccc(Cl)cc1` (centres undefined) was 682 s; that for `O=C(CSc1cn(CCNC(=O)c2ccccc2)c2ccccc12)Nc1ccccc1F` was 863 s.

For the molecule `Cc1ccccc1Cc1nc(-c2cccc(-c3ccnn3C)c2)no1`, the RP-LC retention time came to 1110 s.

With `Cc1cccc(C)c1NC(=O)N(C)CC1CCOCC1`, the RP-LC retention time stood at 692 s.

Consider `CC(C)(C)CC(=O)Nc1ccc2c(c1)N(C(=O)c1ccco1)CCC2`, for which the RP-LC retention time amounted to 866 s. The value for `Cc1ccc(S(=O)(=O)N2CC(c3noc(C)n3)C3(CCOCC3)C2)c(C)c1` (centres undefined) was 888 s; that for `O=C(CC1=CCCCC1)N1CCC(C2CCNC2)CC1` (centres undefined) was 602 s. The value for `Cn1c(CNC(=O)CCC2CCCN(c3cc(NC4CC4)ncn3)C2)nc2ccccc21` (centres undefined) was 560 s. `O=C(Nc1ccccc1)C12CC1/C(=N\O)c1ccccc1O2` (centres undefined) came in with an RP-LC retention time of 825 s. The value for `Cc1noc(N)c1-c1ccc(Cl)cc1` was 807 s; that for `CCCN1C(=O)COc2ccc(-c3noc(COc4ccc(Cl)cc4C)n3)cc21` was 1260 s. Regarding `CCn1nc(CNC(=O)Cc2cccs2)c2ccccc21`, the RP-LC retention time was 766 s. Molecule `Cn1nccc1C(=O)Nc1c(-c2cccc(F)c2)nc2sc(N3CCCCC3)nn12` showed an RP-LC retention time of 882 s.

Turning to `Cc1nnc(N2CCCC(C(=O)N3CCN(c4ccccn4)CC3)C2)c2nn(-c3ccccc3)c(C)c12` (centres undefined), the RP-LC retention time was found to be 584 s. Next, `COc1cccc(-n2c(=O)c3sccc3n(Cc3nc(-c4ccc(OC(C)C)cc4)no3)c2=O)c1`: 1080 s; `CN1CCCN(C(c2ccccc2)c2ccc(Cl)cc2)CC1` (centres undefined): 796 s; `O=C(N[C@H]1C[C@@H]2C[C@H]1N(C(=O)Cc1cccs1)C2)c1ccccc1`: 746 s. For the molecule `Cc1ccnc(N2CCC(C(=O)NC3CCCCC3)CC2)n1`, the RP-LC retention time turned out to be 669 s. Next, `COCCNC(=O)c1nn(-c2ccc(Cl)cc2)nc1CO`: 792 s; `COC(=O)C1=CN(c2ccc(OC)c(OC)c2)c2ccc(F)cc2S1(=O)=O`: 788 s. Next, `Cc1cc(C(=O)Nc2ccc3c(c2)OCCO3)no1`: 681 s; `CCOc1ccc(-c2nc(-c3ccc4nnn(CC)c4c3)no2)cc1`: 1140 s; `O=C(CCc1cc2ccccc2[nH]c1=O)NCCN1CCc2ccccc2C1`: 607 s. Next, `CCCN1CCn2cc(S(=O)(=O)Nc3cccc(C)c3C)cc2C1=O`: 758 s.

`CC(=O)N1CCc2cc(-c3ccc(C(=O)NCc4ccc5c(c4)OCO5)cc3)ccc21` returned an RP-LC retention time of 824 s. In the case of `CCN1C[C@]2(C)CC[C@H](OC)[C@]34C2[C@H](OC(C)=O)[C@@]2(OCO[C@@]25CC(OC)[C@H]2C[C@]3(O)C5[C@H]2OC)C14` (some centres undefined), the RP-LC retention time was 662 s. Turning to `Cc1c(C)n(C(=O)CN2CCC(C(N)=O)CC2)c2ccccc12`, the RP-LC retention time worked out at 614 s. Next, `Cc1ccc(C2=NC3(CCN(C(=O)c4ccccc4C)CC3)ON2)cc1`: 855 s; `O=C(Cn1cc(S(=O)(=O)N2CCCC2)ccc1=O)N1CCCc2ccccc21`: 782 s; `CC(=O)c1ccc(NC(=O)N2C[C@@H]3C[C@H](NC(=O)c4cccnc4)[C@H]2C3)cc1`: 627 s. Next, `CCc1nc(-c2csc(S(=O)(=O)N3CCC(C(=O)Nc4ccc(F)c(Cl)c4)CC3)c2)no1`: 1150 s; `Cc1cc(C)cc(-c2nnc(Cc3nc(-c4ccncc4)no3)o2)c1`: 886 s; `Fc1ccc(Cn2cc(-c3noc(-c4ccccc4)n3)nn2)cc1`: 994 s. Turning to `CCOC(=O)N1CCN(c2ncc(C(=O)NCc3ccccc3)c(N)n2)CC1`, the RP-LC retention time is 656 s.

In turn, `CCCn1ccc2sc(C)c(C(=O)N3CCOCC3)c2c1=O` gave an RP-LC retention time of 646 s. Consider `c1ccc2c(c1)c(-c1noc(-c3ccncc3)n1)nn2CCN1CCCCC1`, for which the RP-LC retention time stood at 642 s. The molecule `COCCC1CCN(C(=O)c2cc(-c3ccccc3)n[nH]2)CC1` yielded an RP-LC retention time of 758 s. The value for `Cc1nc(-c2cn(C(C)C)c3ncccc23)sc1C(=O)Nc1cccc(F)c1` was 1140 s. `O=C(Nc1ccccc1Cl)N1CCC(N2CCN(Cc3ccc(F)cc3)C(=O)C2=O)CC1` returned an RP-LC retention time of 776 s. For `CC(C)n1c(-c2cccc(C(=O)NCc3ccncc3)c2)nc2cccnc21`, the RP-LC retention time came to 599 s. The molecule `Cc1cc(C)c(S(=O)(=O)N2CCCC(C(=O)Nc3ccccc3F)C2)c(C)c1` (centres undefined) had an RP-LC retention time of 1090 s. Regarding `O=C(NC1CC1)C1CCc2sc(C(=O)N3CCCCCC3)cc2C1` (centres undefined), the RP-LC retention time was found to be 736 s.

Take `CCN1C(=O)c2cccnc2Sc2cc(NC(=O)COc3cccc(Cl)c3)ccc21`: the RP-LC retention time was 916 s.

In the case of `CCN(C(=O)c1ccccc1C)c1nc(-c2ccccc2)cs1`, the RP-LC retention time worked out at 1260 s. Molecule `Cc1ccc(NC(=O)N2CCC(C(C)C(=O)Nc3cc(C)cc(C)c3)CC2)cc1` (centres undefined) yielded an RP-LC retention time of 970 s.
